Converted amounts (≈) assume the structure as drawn.
How the values were obtained:
Test in all cases: in vitro antibacterial evaluation, MIC by broth dilution
Format in all cases: cell-based
Enterococcus sp. = details: broth dilution, 18 hours at 35° C.
Procedure, shortened: (§1)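 Broth dilution per NCCLS standard M7-A2 in Muller-Hinton II […], with an inoculum of 5×10^5 CFU/mL and antibiotic spanning 64-0.06 μg/mL. The MIC is the lowest concentration that inhibits growth of the organism.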

Escherichia coli = test system: Escherichia coli
Procedure, shortened: as §1

Staphylococcus sp. = details: broth dilution, 18 hours at 35° C.; for MIC Staphylococcus aureus (GC 1131): strain GC 1131
Procedure, shortened: as §1

Streptococcus sp. = details: broth dilution, 18 hours at 35° C.
Procedure, shortened: as §1

In the case of `CCCc1ccc(C2OCC3OC(OC4C(CO)OC(Oc5ccc(CC6NC(=O)C(C(C)c7ccccc7)NC(=O)CNC(=O)C(CO)NC(=O)C(C(O)C7CNC(=N)N7C7OC(CO)C(O)C(O)C7O)NC(=O)C(C(O)C7CNC(=N)N7)NC6=O)cc5)C(O)C4O)C(O)C(O)C3O2)cc1` (stereo not drawn) [Example 140, Cyclo[glycyl-β-methylphenylalanyl-O-[4-O-[4,6-O-(4-propylbenzylidene)hexopyranosyl]-hexopyranosyl]tyrosyl-3-(2-iminoimidazolidin-4-yl)seryl-3-(3-hexopyranosyl-2-iminoimidazolidin-4-yl)serylseryl]], the “MIC Enterococcus avium (GC 4558)” value (Enterococcus sp.; Enterococcus avium (GC 4558)) is reported as 1 µg/mL (≈ 0.702 µM), the “MIC Enterococcus faecalis (ATCC 29212)” value (Enterococcus sp.; Enterococcus faecalis (ATCC 29212)) is reported as less than 0.5 µg/mL and the “MIC Enterococcus faecalis (GC 2242)” value (Enterococcus sp.; Enterococcus faecalis (GC 2242)) is reported as less than 1 µg/mL. The “MIC Enterococcus faecalis (GC 2691)” value (Enterococcus sp.; Enterococcus faecalis (GC 2691)) was 1 µg/mL (≈ 0.702 µM), the “MIC Enterococcus faecalis (GC 3059)” value (Enterococcus sp.; Enterococcus faecalis (GC 3059)) was 1 µg/mL (≈ 0.702 µM) and the “MIC Enterococcus faecalis (GC 4552)” value (Enterococcus sp.; Enterococcus faecalis (GC 4552)) was 1 µg/mL (≈ 0.702 µM). The “MIC Enterococcus faecalis (GC 4553)” value (Enterococcus sp.; Enterococcus faecalis (GC 4553)) was 1 µg/mL (≈ 0.702 µM), the “MIC Enterococcus faecalis (GC 4554)” value (Enterococcus sp.; Enterococcus faecalis (GC 4554)) was 1 µg/mL (≈ 0.702 µM) and the “MIC Enterococcus faecalis (GC 6189)” value (Enterococcus sp.; Enterococcus faecalis (GC 6189)) was 1 µg/mL (≈ 0.702 µM). The “MIC Enterococcus faecium (GC 2243)” value (Enterococcus sp.; Enterococcus faecium (GC 2243)) was 1 µg/mL (≈ 0.702 µM), the “MIC Enterococcus faecium (GC 4556)” value (Enterococcus sp.; Enterococcus faecium (GC 4556)) was 1 µg/mL (≈ 0.702 µM) and the “MIC Enterococcus faecium (GC 4557)” value (Enterococcus sp.; Enterococcus faecium (GC 4557)) was 1 µg/mL (≈ 0.702 µM). For the same compound, the “MIC Enterococcus faecalis (ATCC 29212)” value (Enterococcus sp.; strain ATCC 29212) was less than 0.5 µg/mL, the “MIC Enterococcus faecalis (GC 2242)” value (Enterococcus sp.; strain GC 2242) was less than 1 µg/mL and the “MIC Enterococcus faecium (GC 2243)” value (Enterococcus sp.; strain GC 2243) was 1 µg/mL (≈ 0.702 µM). For the same compound, the “MIC Enterococcus faecalis (GC 2691)” value (Enterococcus sp.; strain GC 2691) was 1 µg/mL (≈ 0.702 µM), the “MIC Enterococcus faecalis (GC 3059)” value (Enterococcus sp.; strain GC 3059) was 1 µg/mL (≈ 0.702 µM) and the “MIC Enterococcus faecalis (GC 4552)” value (Enterococcus sp.; strain GC 4552) was 1 µg/mL (≈ 0.702 µM). The “MIC Enterococcus faecalis (GC 4553)” value (Enterococcus sp.; strain GC 4553) was 1 µg/mL (≈ 0.702 µM), the “MIC Enterococcus faecalis (GC 4554)” value (Enterococcus sp.; strain GC 4554) was 1 µg/mL (≈ 0.702 µM) and the “MIC Enterococcus faecium (GC 4556)” value (Enterococcus sp.; strain GC 4556) was 1 µg/mL (≈ 0.702 µM). For the same compound, the “MIC Enterococcus faecium (GC 4557)” value (Enterococcus sp.; strain GC 4557) was 1 µg/mL (≈ 0.702 µM), the “MIC Enterococcus avium (GC 4558)” value (Enterococcus sp.; strain GC 4558) was 1 µg/mL (≈ 0.702 µM) and the “MIC Enterococcus faecalis (GC 6189)” value (Enterococcus sp.; strain GC 6189) was 1 µg/mL (≈ 0.702 µM). The “MIC Escherichia coli (ATCC 25922)” value (Escherichia coli; strain ATCC 25922, 18 hours at 35° C.) was 64 µg/mL (≈ 44.9 µM), the “MIC Escherichia coli (GC 4559)” value (Escherichia coli; strain GC 4559, 18 hours at 35° C.) was 64 µg/mL (≈ 44.9 µM) and the “MIC Escherichia coli (GC 4560)” value (Escherichia coli; strain GC 4560, 18 hours at 35° C.) was 1 µg/mL (≈ 0.702 µM). For the same compound, the “MIC Staphylococcus aureus (GC 1131)” value (Staphylococcus sp.; inoculum 5×10^5 CFU/mL) was 1 µg/mL (≈ 0.702 µM), the “MIC Staphylococcus aureus (ATCC 29213)” value (Staphylococcus sp.; strain ATCC 29213) was 1 µg/mL (≈ 0.702 µM) and the “MIC Staphylococcus aureus (GC 1131)” value (Staphylococcus sp.) was 1 µg/mL (≈ 0.702 µM). For the same compound, the “MIC Staphylococcus aureus (GC 3051)” value (Staphylococcus sp.; strain GC 3051) was 1 µg/mL (≈ 0.702 µM), the “MIC Staphylococcus aureus (GC 3053)” value (Staphylococcus sp.; strain GC 3053) was less than 0.5 µg/mL and the “MIC Staphylococcus aureus (GC 4541)” value (Staphylococcus sp.; strain GC 4541) was 1 µg/mL (≈ 0.702 µM). The “MIC Staphylococcus aureus (GC 4542)” value (Staphylococcus sp.; strain GC 4542) was 1 µg/mL (≈ 0.702 µM), the “MIC Staphylococcus aureus-SMITH (GC 4543)” value (Staphylococcus sp.; strain GC 4543) was 1 µg/mL (≈ 0.702 µM) and the “MIC Staphylococcus aureus (GC 4544)” value (Staphylococcus sp.; strain GC 4544) was 1 µg/mL (≈ 0.702 µM). The “MIC Staphylococcus aureus (GC 4545)” value (Staphylococcus sp.; strain GC 4545) was less than 0.5 µg/mL, the “MIC Staphylococcus haemolyticus (GC 4546)” value (Staphylococcus sp.; strain GC 4546) was 1 µg/mL (≈ 0.702 µM) and the “MIC Coagulase Negative Staphylococcus (GC 4547)” value (Staphylococcus sp.; strain GC 4547) was less than 0.5 µg/mL. For the same compound, the “MIC Coagulase Negative Staphylococcus (GC 4548)” value (Staphylococcus sp.; strain GC 4548) was less than 0.5 µg/mL, the “MIC Coagulase Negative Staphylococcus (GC 4549)” value (Staphylococcus sp.; strain GC 4549) was less than 0.5 µg/mL and the “MIC Coagulase Negative Staphylococcus (GC 4551)” value (Staphylococcus sp.; strain GC 4551) was less than 0.5 µg/mL. For the same compound, the “MIC Coagulase Negative Staphylococcus (GC 6257)” value (Staphylococcus sp.; strain GC 6257) was less than 0.5 µg/mL, the “MIC Staphylococcus aureus-SMITH (GC 4543)” value (Staphylococcus sp.; strain SMITH GC 4543) was 1 µg/mL (≈ 0.702 µM) and the “MIC Streptococcus agalactiae (GC 4564)” value (Streptococcus sp.; Streptococcus agalactiae (GC 4564)) was less than 0.5 µg/mL. For the same compound, the “MIC Streptococcus pneumoniae (ATCC 6301)” value (Streptococcus sp.; Streptococcus pneumoniae (ATCC 6301)) was less than 0.5 µg/mL, the “MIC Streptococcus pneumoniae (GC 1894)” value (Streptococcus sp.; Streptococcus pneumoniae (GC 1894)) was less than 0.5 µg/mL and the “MIC Streptococcus pneumoniae (GC 4565)” value (Streptococcus sp.; Streptococcus pneumoniae (GC 4565)) was less than 0.5 µg/mL. For the same compound, the “MIC Streptococcus pyogenes (GC 4563)” value (Streptococcus sp.; Streptococcus pyogenes (GC 4563)) was less than 0.5 µg/mL, the “MIC Streptococcus pneumoniae (ATCC 6301)” value (Streptococcus sp.; strain ATCC 6301) was less than 0.5 µg/mL and the “MIC Streptococcus pneumoniae (GC 1894)” value (Streptococcus sp.; strain GC 1894) was less than 0.5 µg/mL. For the same compound, the “MIC Streptococcus pyogenes (GC 4563)” value (Streptococcus sp.; strain GC 4563) was less than 0.5 µg/mL, the “MIC Streptococcus agalactiae (GC 4564)” value (Streptococcus sp.; strain GC 4564) was less than 0.5 µg/mL and the “MIC Streptococcus pneumoniae (GC 4565)” value (Streptococcus sp.; strain GC 4565) was less than 0.5 µg/mL.

From patent US6914045B2, “Glycopeptide antibiotics” (Wyeth Holdings Corporation, priority 2001, dated 2005)
